These results are taken from patent EP1658050B1, “SELF-NANOEMULSIFYING OILY FORMULATION FOR THE ADMINISTRATION OF POORLY WATER-SOLUBLE DRUGS” (Novagali Pharma S.A., priority 2003, dated 2005).

The structures appear in SMILES notation.

The conditions of data set [1]: humans; after oral paclitaxel administration; cited from earlier work.
The nature of data set [2]: Pharmacokinetic study of oral paclitaxel emulsions after cyclosporin A oral pretreatment (paclitaxel plasma levels by HPLC-UV). It counts as in vivo, FVB Wild-type mice. The settings on record: intravenous 10 mg/kg paclitaxel; with versus without 10 mg/kg oral CsA; wild-type mice.
Experimental: Strains: FVB Wild-type mice Source: Breeding stocks of the animal facility of the Netherlands Kancer Institute (NKI) Age: 8-14 weeks Body weight: 18-30 gram Gender: Female Housing: Animal Department of the NKI
Cyclosporin A (Sandimmun®) was diluted 1:25 in water for injection to yield a final concentration of 2 mg/mL. A volume of 5 µL per gram body weight was administered to the animals resulting in a dose of 10 mg/kg of cyclosporin A.
Each cohort through 1 to 3 consisted of 20 Wild-type mice and cohorts.
Cohorts 4 and 5 are reference groups for the calculation of the bioavailability and consisted of 24 animals per cohort.
Oral drug administrations was done by stainless steel gavage using a glass syringe (250 µl: Hamilton luer tip) or a disposable polypropylene syringe (1 ml). The gavage was inserted via the oesophagus into the stomach.
Intravenous drug administrations were done by injection into the tail vein using a disposable polypropylene syringe (300 µl) provided with fixed 29 g needle. […]
Plasma concentration data were reported. Plasma concentrations versus time curves were fitted using the MEDI\WARE software package (version 3.0) and pharmacokinetic parameters: Area under the plasma concentration-time curve (AUC), Maximum plasma level (Cmax), Elimination half-life (t1/2) and Biological availability (F) were calculated.

On to `CC(=O)O[C@H]1C(=O)[C@@]2(C)[C@H]([C@H](OC(=O)c3ccccc3)[C@]3(O)C[C@H](OC(=O)[C@H](O)[C@@H](NC(=O)c4ccccc4)c4ccccc4)C(C)=C1C3(C)C)[C@]1(OC(C)=O)CO[C@@H]1C[C@@H]2O` [paclitaxel, Paclitaxel], for which, in data set [1], the systemic bioavailability entry was “less than 6%”. The “increase of intravenously administered paclitaxel AUC by oral pre-treatment with cyclosporin A” value in data set [2] is given as 2.35 fold.
